Experimental data reported in PMC11839852, “Preclinical comparison of (radio)lanthanides using mass spectrometry and nuclear imaging techniques: biodistribution of lanthanide-based tumor-targeting agents and lanthanides in ionic form” (European Journal of Nuclear Medicine and Molecular Imaging, 2024).
Like-named read-outs stand apart in the source and are kept apart here. Marks after values point to notes of the source that are not given here. Each block holds one compound with its values, some of them ahead of it.

Experiments:
[1] = design: method as in doi:10.1007/BF02040048, PMID 16411740, PMID 16644751; conditions: coordination with DOTA chelator; cited from earlier work
[2] = system: AR42J tumor cells; test: In vitro cell uptake of lanthanide chloride salts; assay type: cell-based, rat
Protocol: (§1) A mixture of equal molar amounts of the lanthanide chloride salts (100 nM stock solutions of ^natLuCl3, ^natTbCl3, ^natGdCl3, and ^natEuCl3, diluted in saline with an adjusted pH value to 3.5‒4.0) was prepared to obtain a final concentration of 10 pmol/mL (2.5 pmol/mL per lanthanide salt) and tested with AR42J, PC-3 PIP and KB tumor cells according to the same protocol as described for the Ln-labeled biomolecules (Supplementary Material). Analogous in vitro cell uptake studies were also performed with lanthanide metal complexes of diethylenetriaminepentaacetic acid (DTPA, Sigma Aldrich Chemie, Steinheim, Germany) to obtain a final concentration of 10 pmol/mL (2.5 pmol/mL per lanthanide complex) (Supplementary Material).
(§2) Cell uptake studies were performed in triplicate in 3‒6 independent experiments and the results presented as the average ± standard deviation (SD). Data were normalized to the values measured for the ^175Lu-labeled tumor targeting agent or [^175Lu]LuCl3, which were set as 100% and zero was defined as 0%. Statistical significance of the normalized data was assessed for the comparison of the values obtained for terbium, gadolinium and europium analogues with those obtained for the lutetium counterparts by applying one-way ANOVA with the Dunnett’s post-test using GraphPad Prism software (version 8). A p-value of < 0.05 was considered statistically significant.
(§3) Methods: The same experimental setting as described for Ln-labeled biomolecules was applied to perform uptake and internalization studies with the lanthanide salts (LnCl3; Ln = ^natLu, ^natTb, ^natGd and ^natEu). The applied solution was a mixture of the four lanthanide salts yielding a final concentration of 0.4 µM. Of these mixtures, 25 μL were added to the corresponding well with tumor cells. The cells were incubated for 1 h and 4 h, respectively, at 37 °C and 5% CO2. After incubation, the tumor cells were treated as described for the Ln-labeled biomolecules and processed for the measurement with ICP-MS.

[3] = system: non-tumor-bearing immunocompetent FVB mice; test: Biodistribution of lanthanide chloride salts LnCl3 (multiplexed ICP-MS); assay type: in vivo; conditions: for Tissue uptake: Blood / Tissue uptake: Bone / Tissue uptake: Brain / Tissue uptake: Heart / Tissue uptake: Intestines / Tissue uptake: Kidneys / Tissue uptake: Liver / Tissue uptake: Lung / Tissue uptake: Muscle / Tissue uptake: Pancreas / Tissue uptake: Salivary glands / Tissue uptake: Spleen / Tissue uptake: Stomach: non-tumor-bearing mice
[4] = system: AR42J, PC-3 PIP and KB tumor cells; test: In vitro cell uptake of Ln-DTPA complexes; assay type: cell-based; conditions: all tumor cell lines, 1 h and 4 h incubation
Protocol: as §1
Methods: The same experimental setting as described for Ln-labeled biomolecules was applied to perform uptake and internalization studies with the lanthanide DTPA complexes (Ln-DTPA; Ln = ^natLu, ^natTb, ^natGd and ^natEu). The lanthanides were dissolved in 0.05 M hydrochloric acid and further diluted in a 1:5 (v/v) mixture of sodium acetate (0.5 M) and hydrochloric acid (0.05 M), pH ~4.5. A 10-fold molar excess of DTPA (5 mM, aq.) was added to each lanthanide dilution and the reaction mixtures were incubated for 10 min at 95 °C. The complexed lanthanides were further diluted in saline with an adjusted pH value to 3.5-4.0 for in vitro experiments. The applied solution was a mixture of the four Ln-DTPA complexes at a final concentration of 0.4 µM. Of these mixtures, 25 μL were added to the well with the corresponding tumor cells. The tumor cells were incubated for 1 h and 4 h, respectively, at 37 °C and 5% CO2. After incubation, the tumor cells were treated as described for the Ln-labeled biomolecules and processed for the measurement with ICP-MS.

[5] = system: non-tumor-bearing immunocompetent FVB mice; conditions: mouse, in vivo, 1 h
[6] = system: PC-3 PIP tumor cells; test: In vitro cell uptake of lanthanide chloride salts; assay type: cell-based, human; conditions: both incubation times
Protocol: as §1, §2, §3

[7] = 24 h p.i., estimated ratios (organ <0.5% ID/g)
[8] = 96 h p.i., estimated ratios (organ <0.5% ID/g)

SMILES: O=C([O-])CN1CCN(CC(=O)[O-])CCN(CC(=O)[O-])CCN(CC(=O)[O-])CC1.[Tb+3] [Tb-DOTA]
logK [1]: 24.2

Organ ratios: Blood-to-bone ([3]; 1 h p.i.): 0.40 ± 0.05
Organ ratios: Blood-to-liver ([3]; 1 h p.i.): 0.14 ± 0.02
Organ ratios: Liver-to-bone ([3]; 1 h p.i.): 3.0 ± 0.4
Tissue uptake: Blood ([3]; 1 h p.i.): 5.5 ± 0.6 % ID/g
Tissue uptake: Bone ([3]; 1 h p.i.): 14 ± 2 % ID/g
Tissue uptake: Brain ([3]; 1 h p.i.): 1.2 ± 0.9 % ID/g
Tissue uptake: Heart ([3]; 1 h p.i.): 5.3 ± 2.1 % ID/g
Tissue uptake: Intestines ([3]; 1 h p.i.): 2.6 ± 0.9 % ID/g
Tissue uptake: Kidneys ([3]; 1 h p.i.): 8.1 ± 2.1 % ID/g
Tissue uptake: Liver ([3]; 1 h p.i.): 41 ± 5 % ID/g
Tissue uptake: Lung ([3]; 1 h p.i.): 4.8 ± 1.1 % ID/g
Tissue uptake: Muscle ([3]; 1 h p.i.): 1.7 ± 1.0 % ID/g
Tissue uptake: Pancreas ([3]; 1 h p.i.): 2.2 ± 1.0 % ID/g
Tissue uptake: Salivary glands ([3]; 1 h p.i.): 2.7 ± 1.7 % ID/g
Tissue uptake: Spleen ([3]; 1 h p.i.): 6.9 ± 1.6 % ID/g
Tissue uptake: Stomach ([3]; 1 h p.i.): 6.0 ± 2.3 % ID/g
Organ ratios: Liver-to-bone ([3]; 24 h p.i.): 2.7 ± 0.8
Organ ratios: Blood-to-bone [3, 7]: <0.04^*
Organ ratios: Blood-to-liver [3, 7]: <0.01^*
Tissue uptake: Blood ([3]; 24 h p.i.): <0.5 % ID/g
Tissue uptake: Bone ([3]; 24 h p.i.): 14 ± 3 % ID/g
Tissue uptake: Brain ([3]; 24 h p.i.): <0.5 % ID/g
Tissue uptake: Heart ([3]; 24 h p.i.): 1.0 ± 0.1 % ID/g
Tissue uptake: Intestines ([3]; 24 h p.i.): 0.58 ± 0.06 % ID/g
Tissue uptake: Kidneys ([3]; 24 h p.i.): 3.8 ± 0.9 % ID/g
Tissue uptake: Lung ([3]; 24 h p.i.): 1.1 ± 0.2 % ID/g
Tissue uptake: Muscle ([3]; 24 h p.i.): <0.5 % ID/g
Tissue uptake: Pancreas ([3]; 24 h p.i.): <0.5 % ID/g
Tissue uptake: Salivary glands ([3]; 24 h p.i.): 0.53 ± 0.17 % ID/g
Tissue uptake: Spleen ([3]; 24 h p.i.): 5.6 ± 1.1 % ID/g
Tissue uptake: Stomach ([3]; 24 h p.i.): 1.9 ± 0.5 % ID/g
Tissue uptake: Liver ([3]; 24 h p.i., listed as europium): 37 ± 7 % ID/g
Tissue uptake: Liver ([3]; 24 h p.i., listed as natEu): ~ 37 % ID/g
Organ ratios: Liver-to-bone ([3]; 96 h p.i.): 1.3 ± 0.2
Organ ratios: Blood-to-bone [3, 8]: <0.03^*
Organ ratios: Blood-to-liver [3, 8]: <0.02^*
Tissue uptake: Blood ([3]; 96 h p.i.): <0.5 % ID/g
Tissue uptake: Bone ([3]; 96 h p.i.): 18 ± 3 % ID/g
Tissue uptake: Brain ([3]; 96 h p.i.): <0.5 % ID/g
Tissue uptake: Heart ([3]; 96 h p.i.): 0.83 ± 0.05 % ID/g
Tissue uptake: Intestines ([3]; 96 h p.i.): 0.53 ± 0.04 % ID/g
Tissue uptake: Kidneys ([3]; 96 h p.i.): 1.9 ± 0.1 % ID/g
Tissue uptake: Liver ([3]; 96 h p.i.): 23 ± 1 % ID/g
Tissue uptake: Lung ([3]; 96 h p.i.): 0.88 ± 0.15 % ID/g
Tissue uptake: Muscle ([3]; 96 h p.i.): <0.5 % ID/g
Tissue uptake: Pancreas ([3]; 96 h p.i.): <0.5 % ID/g
Tissue uptake: Salivary glands ([3]; 96 h p.i.): <0.5 % ID/g
Tissue uptake: Spleen ([3]; 96 h p.i.): 3.5 ± 0.3 % ID/g
Tissue uptake: Stomach ([3]; 96 h p.i.): 2.3 ± 0.3 % ID/g
SMILES: [Cl-].[Cl-].[Cl-].[Eu+3] [[^153Eu]EuCl3]
Lanthanide uptake compared with [175Lu]LuCl3 [2]: lower uptake

SMILES: O=C([O-])CN(CCN(CC(=O)[O-])CC(=O)[O-])CCN(CC(=O)[O-])CC(=O)[O-].[Gd+3] [[^157Gd]Gd-DTPA]
Lanthanide detected in cell samples (background levels) [4]: < 60 ppt
Tissue uptake: Blood [5]: <0.5 % ID/g
Tissue uptake: Bone [5]: <0.5 % ID/g
Tissue uptake: Brain [5]: <0.5 % ID/g
Tissue uptake: Heart [5]: 0.55 ± 0.06 % ID/g
Tissue uptake: Intestines [5]: <0.5 % ID/g
Tissue uptake: Kidneys [5]: 2.1 ± 0.9 % ID/g
Tissue uptake: Liver [5]: <0.5 % ID/g
Tissue uptake: Lung [5]: 0.56 ± 0.12 % ID/g
Tissue uptake: Muscle [5]: 0.51 ± 0.07 % ID/g
Tissue uptake: Pancreas [5]: <0.5 % ID/g
Tissue uptake: Salivary glands [5]: <0.5 % ID/g
Tissue uptake: Spleen [5]: 0.52 ± 0.03 % ID/g
Tissue uptake: Stomach [5]: 0.77 ± 0.17 % ID/g

Organ ratios: Blood-to-bone ([3]; 1 h p.i.): 0.37 ± 0.01
Organ ratios: Blood-to-liver ([3]; 1 h p.i.): 0.14 ± 0.02
Organ ratios: Liver-to-bone ([3]; 1 h p.i.): 2.6 ± 0.4
Tissue uptake: Blood ([3]; 1 h p.i.): 4.9 ± 0.3 % ID/g
Tissue uptake: Bone ([3]; 1 h p.i.): 13 ± 1 % ID/g
Tissue uptake: Brain ([3]; 1 h p.i.): 1.0 ± 0.6 % ID/g
Tissue uptake: Heart ([3]; 1 h p.i.): 5.0 ± 1.7 % ID/g
Tissue uptake: Intestines ([3]; 1 h p.i.): 2.5 ± 0.8 % ID/g
Tissue uptake: Kidneys ([3]; 1 h p.i.): 8.0 ± 2.0 % ID/g
Tissue uptake: Liver ([3]; 1 h p.i.): 34 ± 4 % ID/g
Tissue uptake: Lung ([3]; 1 h p.i.): 4.8 ± 0.4 % ID/g
Tissue uptake: Muscle ([3]; 1 h p.i.): 1.6 ± 0.6 % ID/g
Tissue uptake: Pancreas ([3]; 1 h p.i.): 2.2 ± 0.4 % ID/g
Tissue uptake: Salivary glands ([3]; 1 h p.i.): 2.8 ± 1.3 % ID/g
Tissue uptake: Spleen ([3]; 1 h p.i.): 6.3 ± 0.9 % ID/g
Tissue uptake: Stomach ([3]; 1 h p.i.): 6.2 ± 1.7 % ID/g
Organ ratios: Liver-to-bone ([3]; 24 h p.i.): 2.2 ± 0.5
Organ ratios: Blood-to-bone [3, 7]: <0.03^*
Organ ratios: Blood-to-liver [3, 7]: <0.02^*
Tissue uptake: Blood ([3]; 24 h p.i.): <0.5 % ID/g
Tissue uptake: Bone ([3]; 24 h p.i.): 14 ± 2 % ID/g
Tissue uptake: Brain ([3]; 24 h p.i.): <0.5 % ID/g
Tissue uptake: Heart ([3]; 24 h p.i.): 1.2 ± 0.1 % ID/g
Tissue uptake: Intestines ([3]; 24 h p.i.): 0.71 ± 0.04 % ID/g
Tissue uptake: Kidneys ([3]; 24 h p.i.): 4.0 ± 0.9 % ID/g
Tissue uptake: Lung ([3]; 24 h p.i.): 1.3 ± 0.1 % ID/g
Tissue uptake: Muscle ([3]; 24 h p.i.): 1.1 ± 0.8 % ID/g
Tissue uptake: Pancreas ([3]; 24 h p.i.): 0.61 ± 0.11 % ID/g
Tissue uptake: Salivary glands ([3]; 24 h p.i.): 0.77 ± 0.16 % ID/g
Tissue uptake: Spleen ([3]; 24 h p.i.): 5.7 ± 1.1 % ID/g
Tissue uptake: Stomach ([3]; 24 h p.i.): 2.6 ± 0.1 % ID/g
Tissue uptake: Liver ([3]; 24 h p.i., listed as gadolinium): 31 ± 6 % ID/g
Tissue uptake: Liver ([3]; 24 h p.i., listed as natGd): ~ 31 % ID/g
Organ ratios: Liver-to-bone ([3]; 96 h p.i.): 1.1 ± 0.2
Organ ratios: Blood-to-bone [3, 8]: <0.03^*
Organ ratios: Blood-to-liver [3, 8]: <0.03^*
Tissue uptake: Blood ([3]; 96 h p.i.): <0.5 % ID/g
Tissue uptake: Bone ([3]; 96 h p.i.): 17 ± 3 % ID/g
Tissue uptake: Brain ([3]; 96 h p.i.): <0.5 % ID/g
Tissue uptake: Heart ([3]; 96 h p.i.): 1.2 ± 0.1 % ID/g
Tissue uptake: Intestines ([3]; 96 h p.i.): 0.66 ± 0.07 % ID/g
Tissue uptake: Kidneys ([3]; 96 h p.i.): 2.0 ± 0.1 % ID/g
Tissue uptake: Liver ([3]; 96 h p.i.): 18 ± 1 % ID/g
Tissue uptake: Lung ([3]; 96 h p.i.): 1.1 ± 0.2 % ID/g
Tissue uptake: Muscle ([3]; 96 h p.i.): 0.51 ± 0.12 % ID/g
Tissue uptake: Pancreas ([3]; 96 h p.i.): 0.53 ± 0.10 % ID/g
Tissue uptake: Salivary glands ([3]; 96 h p.i.): 0.60 ± 0.08 % ID/g
Tissue uptake: Spleen ([3]; 96 h p.i.): 3.6 ± 0.3 % ID/g
Tissue uptake: Stomach ([3]; 96 h p.i.): 3.1 ± 0.8 % ID/g
SMILES: [Cl][Gd]([Cl])[Cl] [[^157Gd]GdCl3]
Detected fraction after acid-wash compared with lutetium ([2]; 1 h incubation): significantly lower
Fraction retained after acid-wash compared with lutetium [6]: higher
